From article PMC6272685, “Docking and Antiherpetic Activity of 2-Aminobenzo[de]-isoquinoline-1,3-diones” (Molecules, 2015)
≈ marks a conversion by molar mass, not a printed value. Where two headings read alike, the source gives them in different places.

Columns and labels:
[1] = tested on: HSV-2; experiment: cytopathic effect inhibition assay against HSV-2 in Vero cells; type: cell-based, herpes simplex virus 2 (G strain); conditions: 48 h, read-out: HSV-2 EC50
Experimental: (§1) Vero cells (derived from the kidney of a normal African green monkey) were obtained from the American Type Culture Collection (ATCC, Manassas, VA, USA). The viral strains used were GHSV-UL46 for HSV-1 and the G strain for HSV-2. The Vero cells were propagated in Dulbecco’s modified Eagle’s medium (DMEM) supplemented with 10% heat-inactivated foetal bovine serum (FBS), 1% L-glutamine, HEPES buffer and 50 µg/mL gentamycin. All cells were maintained at 37 °C in a humidified atmosphere with 5% CO2 and were subcultured two times a week.
(§2) The antiviral screening was performed using a cytopathic effect inhibition assay at the Regional Center for Mycology and Biotechnology (RCMB, Al-Azhar University, Cairo, Egypt). This assay was selected to show specific inhibition of a biological function, that is, a cytopathic effect in susceptible mammalian cells. In brief, monolayers of 10,000 Vero cells adhering at the bottom of the wells in a 96-well microtiter plate were incubated for 24 h at 37 °C in a humidified incubator with 5% CO2. The plates were washed with fresh DMEM and challenged with 10^4 doses of herpes simplex 1 or 2 virus, and then the cultures were simultaneously treated with two-fold serial dilutions of the tested compound, starting from 500 µg/mL and going up to about 2 µg/mL (500, 250, 125, 62.5, …, 1.95 µg/mL) in a fresh maintenance medium; following this, they were incubated at 37 °C for 48 h. An infection control, as well as an untreated Vero cell control were made in the absence of tested compounds. […] Antiviral activity was determined by the inhibition of the cytopathic effect compared to a control, that is, the protection offered by the tested compound to the cells was scored. Three independent experiments were assessed, each containing four replicates per treatment.
(§3) After the incubation period, the media was aspirated, and then the cells were stained with a 1% crystal violet solution for 30 min. Thereafter, all excess stain was removed by rinsing the plates with tap water. The plates were allowed to dry, and then glacial acetic acid (30%) was added to all wells and mixed thoroughly. The absorbance of the plates was measured after gentle shaking on a microplate reader (Tecan Inc., Morrisville, NC, USA), at 590 nm. The viral inhibition rate was calculated as follows: [(ODtv − ODcv)/(ODcd − ODcv)] × 100% where ODtv, ODcv and ODcd indicate the absorbance of the tested compounds with virus-infected cells, the absorbance of the virus control and the absorbance of the cell control, respectively.
EC50 values were determined directly from the curve obtained by plotting the inhibition of the virus yield against the concentration of the samples. The selectivity index (SI) was calculated from the ratio of CC50 to EC50 in order to determine whether each compound had sufficient antiviral activity that exceeded its level of toxicity. This index is referred to as a therapeutic index, and it was also used to determine whether a compound warranted further study.

[2] = tested on: HSV-1; experiment: cytopathic effect inhibition assay against HSV-1 in Vero cells; type: cell-based, herpes simplex virus 1 (GHSV-UL46); conditions: Human alphaherpesvirus 1, Vero, 48 h, read-out: HSV-1 EC50
Experimental: as §1, §2, §3
EC50 values were determined directly from the curve obtained by plotting the inhibition of the virus yield against the concentration of the samples. […] This index is referred to as a therapeutic index, and it was also used to determine whether a compound warranted further study.

[3] = cytotoxicity evaluation using viability assay (crystal violet); type: cell-based, African green monkey; conditions: African green monkey, Vero cells
Experimental: as §1
The Vero cell lines in the cytotoxicity assay were seeded in 96-well plates at a cell concentration of 1 × 10^4 cells per well in 100 µL of the growth medium. Fresh medium containing different concentrations of the tested sample was added after 24 h of seeding. Serial two-fold dilutions of the tested compound were added to confluent cell monolayers dispensed into 96-well, flat-bottomed microtiter plates (Falcon, Jersey, NJ, USA) using a multichannel pipette. The microtiter plates were incubated at 37 °C in a humidified incubator with 5% CO2 for a period of 48 h. Three wells were used for each concentration of the tested sample. Control cells were incubated without test samples and with or without DMSO. The small percentage of DMSO present in the wells (maximal 0.1%) was not found to affect the experiment.
After the end of the incubation period, the viable cell yield was determined by a colorimetric method. In brief, the process of treatment the media with crystal violet solution and measurement of absorbance at 590 nm using a microplate reader was mentioned above. The absorbance was proportional to the number of surviving cells in the culture plate. All the results were corrected for background absorbance detected in wells without added stain. Treated samples were compared with the cell control in the absence of the tested compounds. All experiments were carried out in triplicate. The cell cytotoxicity effect of each tested compound was calculated.
Statistics were done using a one-way ANOVA test, and the percentage cell viability was calculated using Microsoft Excel®, as follows: % Cell viability = [(Mean Abscontrol− Mean Abstest metabolite)/Mean Abscontrol] × 100 where Abs equals the absorbance at 590 nm. The CC50 was estimated from graphic plots and the STATA statistical analysis package was used for the drawing of the dose response curve, in order to calculate CC50. Concerning antiviral evaluation, all experiments and data analysis were performed in RCMB, Al-Azhar University, Cairo, Egypt.

| SMILES | EC50 ([1]; Human alphaherpesvirus 2, Vero cells, cytopathic effect inhibition) | EC50 [2] | CC50 at 48 h [3] | EC50 ([1]; Human alphaherpesvirus 2, Vero) |
| --- | --- | --- | --- | --- |
| Nc1nc2c(ncn2COCCO)c(=O)[nH]1 [Acyclovir, reference compound] | 3.4 ± 0.6 µg/mL (≈ 15.1 µM) | 1.8 ± 0.2 µg/mL (≈ 7.99 µM) | 600 ± 18 µg/mL (≈ 2660 µM) | – |
| NN1C(=O)c2cccc3cccc(c23)C1=O [Parent, 2-amino-1H-benzo[de]isoquinoline-1,3-dione] | – | > 500 µg/mL | 320 ± 24 µg/mL (≈ 1510 µM) | > 500 µg/mL |
